From ChEMBL document CHEMBL4680333, “Lipophilic tail modifications of 2-(hydroxymethyl)pyrrolidine scaffold reveal dual sphingosine kinase 1 and 2 inhibitors” (Bioorg Med Chem, 2021)

target: T1, Sphingosine kinase 2 (Homo sapiens) (UniProt Q9NRA0); test: Inhibition of recombinant human SphK2 assessed as decrease in [33P]SIP production at 0.3 uM using sphingosine as substrate in presence of [gamma33P]-ATP by scintillation counting method relative to control
T1 sequence (whole entry): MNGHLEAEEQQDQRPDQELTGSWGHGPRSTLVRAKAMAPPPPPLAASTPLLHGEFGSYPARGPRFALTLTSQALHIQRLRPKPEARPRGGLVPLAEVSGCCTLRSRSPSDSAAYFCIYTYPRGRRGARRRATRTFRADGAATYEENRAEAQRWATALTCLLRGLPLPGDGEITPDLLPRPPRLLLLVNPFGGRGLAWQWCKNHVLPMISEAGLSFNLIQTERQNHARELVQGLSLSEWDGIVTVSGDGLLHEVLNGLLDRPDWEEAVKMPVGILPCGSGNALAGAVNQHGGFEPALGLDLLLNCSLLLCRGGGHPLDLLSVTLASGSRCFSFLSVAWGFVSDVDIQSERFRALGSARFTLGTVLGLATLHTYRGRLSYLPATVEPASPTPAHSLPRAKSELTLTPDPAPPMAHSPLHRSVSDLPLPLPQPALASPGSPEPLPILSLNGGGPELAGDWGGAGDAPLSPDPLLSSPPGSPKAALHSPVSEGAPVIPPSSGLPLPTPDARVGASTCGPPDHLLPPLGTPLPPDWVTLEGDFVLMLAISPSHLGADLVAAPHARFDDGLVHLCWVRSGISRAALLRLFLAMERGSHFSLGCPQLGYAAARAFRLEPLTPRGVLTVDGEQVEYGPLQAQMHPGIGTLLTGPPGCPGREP

Row | inhibition | SMILES
1 | 1% | OC[C@H]1CCCN1Cc1ccc(Oc2cccc(-c3ccc(C(F)(F)F)cc3)c2)cc1
2 | 3% | COc1ccc(CCc2ccc(CN3CCC[C@@H]3CO)cc2)cc1
3 | 0% | OC[C@H]1CCCN1Cc1ccc(Oc2ccc(-c3ccc(C(F)(F)F)cc3)cc2)cc1
4 | 44% | CCCCCCCCCc1ccc(CN2CCC[C@@H]2CO)cc1
5 | 1% | CCCCCCCCOc1ccc(CN2CCC[C@@H]2CO)cc1
6 | 52% | OC[C@H]1CCCN1Cc1ccc(Oc2ccc(-c3cccc(C(F)(F)F)c3)cc2)cc1
7 | 0% | CCCc1ccc(C#Cc2ccc(CN3CCC[C@@H]3CO)cc2)cc1
8 | 18% | CCCCCCCCCCCc1ccc(CN2CCC[C@@H]2CO)cc1
9 | 15% | CCCc1ccc(CCc2ccc(CN3CCC[C@@H]3CO)cc2)cc1
10 | 44% | CCCCCCCCCOc1ccc(CN2CCC[C@@H]2CO)cc1
11 | 11% | CCCCCCCCCCOc1ccc(CN2CCC[C@@H]2CO)cc1
12 | 0% | OC[C@H]1CCCN1Cc1ccc(Oc2cccc(-c3ccccc3)c2)cc1
13 | 13% | OC[C@H]1CCCN1Cc1ccc(Oc2ccccc2)cc1
14 | 19% | CCCCCc1ccc(C#Cc2ccc(CN3CCC[C@@H]3CO)cc2)cc1
15 | 11% | CC(C)(C)c1cccc(Oc2ccc(CN3CCC[C@@H]3CO)cc2)c1
16 | 3% | Cc1cc(/C=C/c2ccc(C(C)(C)C)cc2)ccc1CN1CCC[C@@H]1CO
17 | 0% | OC[C@H]1CCCN1Cc1ccc(/C=C/c2cccc(C(F)(F)F)c2)cc1
18 | 0% | OC[C@H]1CCCN1Cc1ccc(OCc2ccc(C(F)(F)F)cc2)cc1
19 | 13% | CCCCCc1ccc(CCc2ccc(CN3CCC[C@@H]3CO)cc2)cc1
20 | 25% | CCCCc1ccc(C#Cc2ccc(CN3CCC[C@@H]3CO)cc2)cc1
21 | 0% | CCCCc1ccc(CCc2ccc(CN3CCC[C@@H]3CO)cc2)cc1
22 | 26% | Cc1ccc(CCc2ccc(CN3CCC[C@@H]3CO)cc2)cc1
23 | 37% | CCCCCCCCCCCCc1ccc(CN2CCC[C@@H]2CO)cc1
24 | 38% | CCCCCCCCCCCCc1ccc(CN2CCC[C@@H]2CO)c(C)c1
25 | 0% | CCCCCCCOc1ccc(CN2CCC[C@@H]2CO)cc1
26 | 11% | OC[C@H]1CCCN1Cc1ccc(Oc2cccc(-c3cccc(C(F)(F)F)c3)c2)cc1
27 | 2% | CCCCCCCCCCCc1ccc(CN2CCC[C@@H]2COC(C)=O)cc1
28 | 22% | CC(C)(C)c1ccc(Oc2ccc(CN3CCC[C@@H]3CO)cc2)cc1
29 | 54% | CCCCCCCCCCc1ccc(CN2CCC[C@@H]2CO)cc1
30 | 9% | OC[C@H]1CCCN1Cc1ccc(Oc2ccc(-c3ccccc3)cc2)cc1

target: T2, Sphingosine kinase 2 (Homo sapiens, UniProt Q9NRA0)
T2 sequence (Q9NRA0 whole entry): T1 sequence (whole entry)
Description: Inhibition of recombinant human SphK2 assessed as decrease in [33P]SIP production using sphingosine as substrate in presence of [gamma33P]-ATP by scintillation counting method

Row | Ki | SMILES
31 | 951 nM | CCCCCCCCCCCCc1ccc(CN2CCC[C@@H]2CO)cc1
32 | 400 nM | CCCCCCCCOc1ccc(COc2ccc(-c3noc([C@@H]4CCCN4C(=N)N)n3)cc2C(F)(F)F)cc1
